Assay results: EPA's ToxValDB 9.5 (doi:10.2903/j.efsa.2013.3220)
Values after ≈ are worked out from the molar mass of the structure shown.

What was measured:
Bibionidae = conditions: chronic/long-term, duration: 28 days
Daphnia magna = conditions: chronic/long-term, duration: 21 days
Lepomis macrochirus = conditions: acute; duration: 96 hours; mortality
Rattus norvegicus = conditions: for LD50: acute, oral, mortality
Apis mellifera = conditions: acute, mortality
Canidae = conditions: chronic; duration: 1 years; oral; M/F; Dog Other; histopathology: nonneoplastic
Colinus virginianus = conditions: for LD50: acute, oral, mortality
Pimephales promelas = conditions: chronic/long-term; duration: 32 days; body weight
Zea sp. = conditions: acute, duration: 14 days
Aphidius rhopalosiphi = assay: LR50; higher = less toxic; conditions: acute; duration: 48 hours; mortality
Typhlodromus pyri = assay: LR50; higher = less toxic; conditions: chronic/long-term; duration: 7 days; mortality

Structure (SMILES): CCO[C@@H]1[C@@H](OC)[C@H](C)O[C@@H](O[C@@H]2C[C@H]3CC[C@@H]4[C@@H](C=C5C(=O)[C@H](C)[C@@H](O[C@H]6CC[C@H](NC)[C@@H](C)O6)CCC[C@H](CC)OC(=O)C[C@H]54)[C@@H]3C2)[C@@H]1OC [N-demethyl-175-J]
- NOEC (Bibionidae): 0.617 µg/L
- NOEC (Daphnia magna): 0.03 µg/L
- LC50 (Lepomis macrochirus): 2.98 µg/mL (≈ 4.06 µM)
- LD50 (Rattus norvegicus): 3130 mg/kg-day

Structure (SMILES): CCO[C@@H]1[C@@H](OC)[C@H](C)O[C@@H](O[C@@H]2C[C@H]3CC[C@@H]4[C@@H](C=C5C(=O)[C@H](C)[C@@H](O[C@H]6CC[C@H](N(C)C=O)[C@@H](C)O6)CCC[C@H](CC)OC(=O)C[C@H]54)[C@@H]3C2)[C@@H]1OC [N-demethyl-175-L]
- NOEC (Daphnia magna): 0.027 µg/L
- LC50 (Lepomis macrochirus): 1.55 µg/mL (≈ 2.03 µM)

Structure (SMILES): CCO[C@@H]1[C@@H](OC)[C@H](C)O[C@@H](OC2C[C@H]3CC[C@H]4C5CC(=O)O[C@@H](CC)CCC[C@H](O[C@H]6CC[C@H](N(C)C)[C@@H](C)O6)[C@@H](C)C(=O)C5=C[C@H]4[C@@H]3C2)[C@@H]1OC (some centres not stated) [Spinetoram]
- LD50 (Anas platyrhynchos; acute, oral, unspecified, mortality): > 2250 mg/kg-day
- NOEL (Anas platyrhynchos; reproductive): 149 mg/kg-day
- LD50 (Apis mellifera; duration: 48 hours, dermal): 0.024 µg/piece
- LD50 (Apis mellifera; duration: 72 hours, oral, unspecified): 0.11 µg/piece
- NOEC (Bibionidae; M/F, development): 97.2 µg/kg
- NOEC (Bibionidae; development): 0.75 µg/L
- NOAEL (Canidae): 2.5 mg/kg-day
- LD50 (Colinus virginianus; diet): > 2040 mg/kg-day
- LD50 (Colinus virginianus): > 2250 mg/kg-day
- NOEL (Colinus virginianus; reproduction developmental): 95 mg/kg-day
- NOEC (Daphnia magna; mobility): 0.0624 µg/L
- LC50 (Lepomis macrochirus): 2.69 µg/mL (≈ 3.6 µM)
- NOEC (Pimephales promelas): 0.182 mg/L
- LD50 (Rattus norvegicus): > 5000 mg/kg-day
- NOAEL (Rattus norvegicus; reproduction developmental, reproduction): 10 mg/kg-day
- LC50 (Tagia sp.; acute, duration: 14 days, mortality): > 1000 mg/kg
- NOEC (Tagia sp.; chronic/long-term, duration: 56 days, reproduction): 18.6 mg/kg
- LEC (Zea sp.; other): ≤ 150 g/ha
- LEC (Zea sp.; seedling emergence): ≤ 150 g/ha
- LR50 (Aphidius rhopalosiphi): 0.0885 g/ha
- LR50 (Typhlodromus pyri): 0.132 g/ha
